Several values for one entry are separate records, joined by “and”; a condition that tells them apart may be missing. Identical values can stand only once.
Experiments:
Assay in all cases: NCI one-dose screen
Format in all cases: cell-based, human
SK-MEL-5 = settings: Melanoma SK-MEL-5, 10 µM single dose
Outline: (§1)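 One concentration (10 μM) applied to each line of the full NCI-60 panel; percent growth compared against untreated cells.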

OVCAR-5 = settings: Ovarian OVCAR-5, 10 µM single dose
Outline: as §1

CCRF-CEM = settings: Leukemia CCRF-CEM, 10 µM single dose
Outline: as §1

EKVX = settings: NSCLC EKVX, 10 µM single dose
Outline: (§2)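 In vitro antiproliferative testing: NCI-60 panel, initial single dose 10 μM, inhibition % derived from percent growth of treated versus untreated control cells.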

A549/ATCC = settings: NSCLC A549/ATCC, 10 µM single dose
Outline: as §1

HOP-62 = settings: NSCLC HOP-62, 10 µM single dose
Outline: as §2

HCT-116 = settings: Colon HCT-116, 10 µM single dose
Outline: as §1

SN12C = settings: Renal SN12C, 10 µM single dose
Outline: as §1

SR = settings: Leukemia SR, 10 µM single dose
Outline: as §1

CAKI-1 = settings: Renal CAKI-1, 10 µM single dose
Outline: as §1

HT29 = settings: Colon HT29, 10 µM single dose
Outline: as §1

SF-539 = settings: CNS SF-539, 10 µM single dose
Outline: (§3)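 At 10 μM, a single concentration, compounds were evaluated for antiproliferative effect in the NCI 60-line screen, with growth expressed relative to untreated control cells.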

TK-10 = settings: Renal TK-10, 10 µM single dose
Outline: as §1

NCI-H522 = settings: NSCLC NCI-H522, 10 µM single dose
Outline: as §2

IGROV1 = settings: Ovarian IGROV1, 10 µM single dose
Outline: as §1

SNB-19 = settings: CNS SNB-19, 10 µM single dose
Outline: as §2

786-0 = settings: Renal 786-0, 10 µM single dose
Outline: as §1

SF-268 = settings: CNS SF-268, 10 µM single dose
Outline: as §3

RXF 393 = settings: Renal RXF 393, 10 µM single dose
Outline: as §1

RPMI-8226 = settings: Leukemia RPMI-8226, 10 µM single dose
Outline: as §1

UO-31 = settings: Renal UO-31, 10 µM single dose
Outline: as §2

NCI-H322M = settings: NSCLC NCI-H322M, 10 µM single dose
Outline: as §1

HS 578T = settings: Breast HS 578T, 10 µM single dose
Outline: as §1

NCI-H226 = settings: NSCLC NCI-H226, 10 µM single dose
Outline: as §2

SK-MEL-2 = settings: Melanoma SK-MEL-2, 10 µM single dose
Outline: as §2

LOX IMVI = settings: Melanoma LOX IMVI, 10 µM single dose
Outline: as §1

DU-145 = settings: Prostate DU-145, 10 µM single dose
Outline: as §1

SNB-75 = settings: CNS SNB-75, 10 µM single dose
Outline: as §2

MALME-3M = settings: Melanoma MALME-3M, 10 µM single dose
Outline: as §1

HCC-2998 = settings: Colon HCC-2998, 10 µM single dose
Outline: as §1

MDA-MB-435 = settings: Melanoma MDA-MB-435, 10 µM single dose
Outline: as §1

COLO 205 = settings: Colon COLO 205, 10 µM single dose
Outline: as §1

SK-OV-3 = settings: Ovarian SK-OV-3, 10 µM single dose
Outline: as §1

OVCAR-4 = settings: Ovarian OVCAR-4, 10 µM single dose
Outline: as §1

M14 = settings: Melanoma M14, 10 µM single dose
Outline: as §1

SW-620 = settings: Colon SW-620, 10 µM single dose
Outline: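 Compounds were tested at a single dose of 10 μM across the full NCI-60 cell line panel. Growth was expressed as percent growth relative to untreated control cells, reported as percent inhibition.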

HL-60(TB) = settings: Leukemia HL-60(TB), 10 µM single dose
Outline: as §3

Cc1c(C(=O)NO)sc2ncnc(Nc3ccc(NC(=O)Nc4ccccc4)cc3)c12 [Compound 7a, 1–(4-(6-(hydroxycarbamoyl)-5-methylthieno[2,3-d]pyrimidin-4-ylamino)phenyl)-3-phenylurea]
Growth Percent (SK-MEL-5): 101.0% and 101.07%
Growth Percent (OVCAR-5): 105.3% and 105.35%
Growth Percent (CCRF-CEM): 97.4% and 97.44%
Growth Percent (EKVX): 88.9% and 88.95%
Growth Percent (A549/ATCC): 103.8% and 103.82%
Growth Percent (HOP-62): 102.6% and 102.62%
Growth Percent (HCT-116): 93.8% and 93.86%
Growth Percent (SN12C): 102.8% and 102.86%
Growth Percent (SR): 99.1% and 99.16%
Growth Percent (CAKI-1): 91.6% and 91.67%
Growth Percent (HT29): 94.7% and 94.78%
Growth Percent (SF-539): 96.0%
Growth Percent (TK-10): 108.5% and 108.59%
Growth Percent (NCI-H522): 92.0% and 92.04%
Growth Percent (IGROV1): 103.6% and 103.69%
Growth Percent (SNB-19): 100.2%
Growth Percent (786-0): 95.9% and 95.93%
Growth Percent (SF-268): 91.7%
Growth Percent (RXF 393): 110.2%
Growth Percent (RPMI-8226): 105.4% and 105.45%
Growth Percent (UO-31): 74.6% and 74.65%
Growth Percent (NCI-H322M): 98.4% and 98.47%
Growth Percent (HS 578T): 97.7% and 97.71%
Growth Percent (NCI-H226): 99.4% and 99.47%
Growth Percent (SK-MEL-2): 107.8%
Growth Percent (LOX IMVI): 90.5% and 90.57%
Growth Percent (DU-145): 100.2% and 100.26%
Growth Percent (SNB-75): 75.5% and 75.56%
Growth Percent (MALME-3M): 89.5% and 89.51%
Growth Percent (HCC-2998): 99.3% and 99.38%
Growth Percent (MDA-MB-435): 102.0% and 102.09%
Growth Percent (COLO 205): 106.8% and 106.84%
Growth Percent (SK-OV-3): 122.7% and 122.74%
Growth Percent (OVCAR-4): 94.1% and 94.11%
Growth Percent (M14): 95.1% and 95.18%
Growth Percent (SW-620): 98.4% and 98.44%
Growth Percent (HL-60(TB)): 102.2% and 102.25%

COc1cccc(NC(=O)Nc2ccc(Nc3ncnc4sc(C(=O)NO)c(C)c34)cc2)c1 [Compound 7b, 1–(4-(6-(hydroxycarbamoyl)-5-methylthieno[2,3-d]pyrimidin-4-ylamino)phenyl)-3–(3-methoxyphenyl)urea]
Growth Percent (SK-MEL-5): 99.5%
Growth Percent (OVCAR-5): 102.8% and 102.86%
Growth Percent (CCRF-CEM): 101.2% and 101.22%
Growth Percent (EKVX): 92.8% and 92.81%
Growth Percent (A549/ATCC): 101.8% and 101.81%
Growth Percent (HOP-62): 101.6% and 101.62%
Growth Percent (HCT-116): 102.7% and 102.72%
Growth Percent (SN12C): 99.1% and 99.12%
Growth Percent (SR): 115.8% and 115.82%
Growth Percent (CAKI-1): 99.4% and 99.45%
Growth Percent (HT29): 103.6% and 103.62%
Growth Percent (SF-539): 97.2% and 97.26%
Growth Percent (TK-10): 103.9% and 103.96%
Growth Percent (NCI-H522): 90.2% and 90.28%
Growth Percent (IGROV1): 106.5% and 106.51%
Growth Percent (SNB-19): 100.1% and 100.14%
Growth Percent (786-0): 100.6% and 100.62%
Growth Percent (SF-268): 93.3% and 93.33%
Growth Percent (RXF 393): 104.4%
Growth Percent (RPMI-8226): 110.6% and 110.62%
Growth Percent (UO-31): 83.4% and 83.47%
Growth Percent (NCI-H322M): 103.7%
Growth Percent (HS 578T): 102.4% and 102.45%
Growth Percent (NCI-H226): 94.5% and 94.51%
Growth Percent (SK-MEL-2): 100.6% and 100.68%
Growth Percent (LOX IMVI): 94.1% and 94.14%
Growth Percent (DU-145): 103.1% and 103.17%
Growth Percent (SNB-75): 92.7% and 92.76%
Growth Percent (MALME-3M): 101.9% and 101.92%
Growth Percent (HCC-2998): 103.6% and 103.61%
Growth Percent (MDA-MB-435): 101.5% and 101.59%
Growth Percent (COLO 205): 114.4% and 114.44%
Growth Percent (SK-OV-3): 128.5% and 128.59%
Growth Percent (OVCAR-4): 101.8% and 101.82%
Growth Percent (M14): 101.0% and 101.01%
Growth Percent (SW-620): 101.2% and 101.24%
Growth Percent (HL-60(TB)): 103.1% and 103.15%

Reference: article PMC8253220, “Molecular design, synthesis and in vitro biological evaluation of thienopyrimidine–hydroxamic acids as chimeric kinase HDAC inhibitors: a challenging approach to combat cancer” (Journal of Enzyme Inhibition and Medicinal Chemistry, 2021)
